Experimental data from US12077503B2, “Substituted cyclic amides and their use as herbicides” (FMC CORPORATION, priority 2015, dated 2024).
Where two headings read alike, the source gives them in different places.

Assays:
Format in all cases: in vivo
[1] = tested on: Galium (catchweed bedstraw, Galium aparine); assay: Test A postemergence; conditions: Galium, post-emergence, 240 h; for pest or weed control at 125 g/ha: 125 g ai/ha, read-out: Galium plant response rating (0 to 100 scale); for pest or weed control at 500 g/ha: 500 g ai/ha, visual injury, 0 to 100 scale (0 no effect, 100 complete control), approx. 10 d, read-out: Plant response rating, Galium
In short: (§1)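 Greenhouse, ~10 d after spray; visual injury vs untreated controls, 0 = no effect, 100 = complete control. Preemergence: directed soil spray over planted seeds. Postemergence: plants 2–10 cm, 1–2 leaf stage. Loam/sand blend. Compound in non-phytotoxic solvent with surfactant.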

[2] = tested on: giant foxtail (Setaria faberii); assay: Test A postemergence; conditions: Setaria faberi, post-emergence, 240 h; for pest or weed control at 125 g/ha: 125 g ai/ha, read-out: Foxtail, Giant plant response rating (0 to 100 scale); for pest or weed control at 500 g/ha: 500 g ai/ha, visual injury, 0 to 100 scale (0 no effect, 100 complete control), approx. 10 d, read-out: Plant response rating, Foxtail, Giant
In short: as §1

[3] = tested on: wheat (Triticum aestivum); assay: Test A postemergence; conditions: Triticum aestivum, post-emergence, 240 h; for plant injury at 125 g/ha: 125 g ai/ha, read-out: Wheat plant response rating (0 to 100 scale); for plant injury at 500 g/ha: 500 g ai/ha, visual injury, 0 to 100 scale (0 no effect, 100 complete control), approx. 10 d, read-out: Plant response rating, Wheat
In short: as §1

[4] = tested on: barnyardgrass (Echinochloa crus-galli); assay: Test A postemergence; conditions: Echinochloa crus-galli, post-emergence, 240 h; for pest or weed control at 125 g/ha: 125 g ai/ha; for pest or weed control at 500 g/ha: 500 g ai/ha, visual injury, 0 to 100 scale (0 no effect, 100 complete control), approx. 10 d, read-out: Plant response rating, Barnyardgrass
In short: as §1

[5] = tested on: giant foxtail (Setaria faberii); assay: Test A preemergence; conditions: Setaria faberi, pre-emergence, 240 h, preemergence, 0 to 100 scale where 0 is no effect and 100 is complete control, read-out: Foxtail, Giant plant response rating; for pest or weed control at 125 g/ha: 125 g ai/ha, visual injury rating, approximately 10 d; for pest or weed control at 500 g/ha: 500 g ai/ha
In short: as §1

[6] = tested on: pigweed (Amaranthus retroflexus); assay: Test A preemergence; conditions: Amaranthus retroflexus, pre-emergence, 240 h, preemergence, 0 to 100 scale where 0 is no effect and 100 is complete control, read-out: Pigweed plant response rating; for pest or weed control at 125 g/ha: 125 g ai/ha, visual injury rating, approximately 10 d; for pest or weed control at 500 g/ha: 500 g ai/ha
[7] = tested on: barnyardgrass (Echinochloa crus-galli); assay: Test A preemergence; conditions: Echinochloa crus-galli, pre-emergence, 240 h, preemergence, 0 to 100 scale where 0 is no effect and 100 is complete control, read-out: Barnyardgrass plant response rating; for pest or weed control at 125 g/ha: 125 g ai/ha, visual injury rating, approximately 10 d; for pest or weed control at 500 g/ha: 500 g ai/ha
In short: as §1

[8] = tested on: ryegrass, Italian (Italian ryegrass, Lolium multiflorum); assay: Test A preemergence; conditions: Lolium multiflorum, pre-emergence, 240 h, preemergence, 0 to 100 scale where 0 is no effect and 100 is complete control, read-out: Ryegrass, Italian plant response rating; for pest or weed control at 125 g/ha: 125 g ai/ha, visual injury rating, approximately 10 d; for pest or weed control at 500 g/ha: 500 g ai/ha
In short: as §1

[9] = tested on: ragweed (common ragweed, Ambrosia elatior); assay: Test A preemergence; conditions: Ambrosia artemisiifolia, pre-emergence, 240 h, preemergence, 0 to 100 scale where 0 is no effect and 100 is complete control, read-out: Ragweed plant response rating; for pest or weed control at 125 g/ha: 125 g ai/ha, visual injury rating, approximately 10 d; for pest or weed control at 500 g/ha: 500 g ai/ha
In short: as §1

[10] = tested on: Kochia (Kochia scoparia); assay: Test A preemergence; conditions: Bassia scoparia, pre-emergence, 240 h, preemergence, 0 to 100 scale where 0 is no effect and 100 is complete control, read-out: Kochia plant response rating; for pest or weed control at 125 g/ha: 125 g ai/ha, visual injury rating, approximately 10 d; for pest or weed control at 500 g/ha: 500 g ai/ha
In short: as §1

[11] = tested on: rice (Oryra sativa); assay: Test B flooded paddy test; conditions: Oryza sativa, 250 g ai/ha, Flood; 0 to 100 scale where 0 is no effect and 100 is complete control; read-out: Rice plant response rating
In short: (§2)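 Greenhouse paddy pots with 2-leaf stage plants received compound by direct addition to floodwater 3 cm deep, kept at that level. Scored visually at 13–15 d versus controls (0 no effect; 100 complete control).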

[12] = tested on: barnyardgrass (Echinochloa crus-galli); assay: Test B flooded paddy test; conditions: Echinochloa crus-galli, 250 g ai/ha, Flood; 0 to 100 scale where 0 is no effect and 100 is complete control; read-out: Barnyardgrass plant response rating
In short: as §2

[13] = tested on: ducksalad (Heteranthera limosa); assay: Test B flooded paddy test; conditions: Heteranthera limosa, 250 g ai/ha, Flood; 0 to 100 scale where 0 is no effect and 100 is complete control; read-out: Ducksalad plant response rating
In short: as §2

[14] = tested on: sedge, umbrella (small-flower umbrella sedge, Cyperus difformis); assay: Test B flooded paddy test; conditions: Cyperus difformis, 250 g ai/ha, Flood; 0 to 100 scale where 0 is no effect and 100 is complete control; read-out: Sedge, Umbrella plant response rating
In short: as §2

[15] = postemergence, visual injury vs untreated controls after approx. 10 d, 0 = no effect, 100 = complete control
[16] = postemergence, visual injury vs untreated controls after approx. 10 d, 0 = no effect, 100 = complete control, read-out: Barnyardgrass plant response rating (0 to 100 scale)
[17] = Postemergence, visual rating about 10 d after treatment

Row | Compound | pest or weed control at 500 g/ha ([1]; Postemergence) [%] | pest or weed control at 500 g/ha ([2]; Postemergence) [%] | plant injury at 500 g/ha ([3]; Postemergence) [%] | pest or weed control at 500 g/ha ([4]; Postemergence) [%] | pest or weed control at 125 g/ha [5] [%] | pest or weed control at 500 g/ha [5] [%] | pest or weed control at 125 g/ha [6] [%] | pest or weed control at 500 g/ha [6] [%] | pest or weed control at 125 g/ha [7] [%] | pest or weed control at 500 g/ha [7] [%] | pest or weed control at 125 g/ha [8] [%] | pest or weed control at 500 g/ha [8] [%] | pest or weed control at 125 g/ha [9] [%] | pest or weed control at 500 g/ha [9] [%] | pest or weed control at 125 g/ha [10] [%] | pest or weed control at 500 g/ha [10] [%] | pest or weed control at 250 g/ha [11] [%] | pest or weed control at 250 g/ha [12] [%] | pest or weed control at 250 g/ha [13] [%] | pest or weed control at 250 g/ha [14] [%] | other results
1 | CSc1ccccc1NC(=O)[C@H]1C(=O)N(C)C[C@@H]1c1ccc2c(c1)OC(F)(F)O2 [Compound 1251] | 50 | 80 | 60 | 100 | 100 | 100 | 90 | 90 | 100 | 100 | 50 | 60 | 70 | 80 | 80 | 90 | 0 | 0 | 90 | 0 | pest or weed control at 125 g/ha [1, 15]: 50%; pest or weed control at 125 g/ha [2, 15]: 70%; plant injury at 125 g/ha [3, 15]: 30%; pest or weed control at 125 g/ha [4, 16]: 80%
2 | Cc1c(F)cccc1NC(=O)[C@H]1C(=O)N(C)C[C@@H]1c1ccc2c(c1)OC(F)(F)O2 [Compound 1252] | 60 | 80 | 70 | 90 | 90 | 100 | 70 | 90 | 100 | 100 | 80 | 90 | 60 | 70 | 80 | 80 | 30 | 65 | 100 | 0 | pest or weed control at 125 g/ha [1, 15]: 50%; pest or weed control at 125 g/ha [2, 15]: 80%; plant injury at 125 g/ha [3, 15]: 70%; pest or weed control at 125 g/ha [4, 16]: 80%
3 | CN1C[C@H](c2ccc(F)c(C#N)c2)[C@@H](C(=O)Nc2ccccc2F)C1=O [Compound 1254] | 50 | 80 | 40 | 90 | 90 | 100 | 20 | 70 | 100 | 100 | 0 | 40 | 0 | 30 | 20 | 70 | 0 | 60 | 100 | 0 | pest or weed control at 125 g/ha [1, 15]: 30%; pest or weed control at 125 g/ha [2, 15]: 80%; pest or weed control at 125 g/ha [4, 16]: 80%
4 | CSc1ccccc1NC(=O)[C@H]1C(=O)NC[C@@H]1c1ccc2c(c1)OCO2 [Compound 1257] | 0 | 0 | 0 | 0 | 0 | 0 | 0 | 0 | 0 | 0 | 0 | 0 | 0 | 0 | 0 | 0 | 0 | 20 | 0 | 0 | pest or weed control at 125 g/ha [1, 15]: 0%; pest or weed control at 125 g/ha [2, 15]: 0%; pest or weed control at 125 g/ha [4, 16]: 0%
5 | COc1cc([C@H]2CN(C)C(=O)[C@@H]2C(=O)Nc2cccc(F)c2F)ccc1F [Compound 1299] | 50 | 90 | 40 | 90 | 90 | 90 | 20 | 60 | 90 | 90 | 30 | 70 | 30 | 70 | 70 | 70 | 20 | 65 | 85 | 40 | pest or weed control at 125 g/ha [1, 17]: 40%; pest or weed control at 125 g/ha [2, 17]: 90%; plant injury at 125 g/ha [3, 17]: 30%; pest or weed control at 125 g/ha ([4]; Postemergence, visual rating about 10 d after treatment, read-out: Barnyardgrass plant response rating (0 to 100 scale, 0 no effect, 100 complete control)): 90%
